The values below come from paper PMC8231118, “Evaluating the Antioxidants, Whitening and Antiaging Properties of Rice Protein Hydrolysates” (Molecules, 2021).

Molecules are shown by their SMILES. Values after ≈ are worked out from the molar mass of the structure shown.

In this experiment the target is T1, mushroom tyrosinase.
T1 construct: gene PPO3
Description: dopachrome absorbance at […] nm. It counts as biochemical. To be noted: L-DOPA substrate (1.25 mM solution), 20 mM phosphate pH 6.8, 37 °C, 30 min.

With `O=C1O[C@H]([C@@H](O)CO)C(O)=C1O` [ascorbic acid], the IC50 was 98 µg/mL (≈ 556 µM).

One may read the IC50 as the concentration that inhibits the measured activity by half. A higher IC50 goes with lower potency.
